Measured values reported in patent US11236069B2, “KIF18A inhibitors” (AMGEN INC., priority 2018, dated 2022).

Target: Recombinant human KIF18A (1-467 His-tagged) protein (Homo sapiens (Human), UniProt Q8NI77)
Assay: KIF18A Enzyme Assay: microtubule-stimulated ATPase activity (ADP-Glo)
Conditions: read-out: KIF18A ATPase IC50; 30 nM KIF18A, 30 μg/mL pig microtubules, ATP at Km 75 μM, ADP-Glo luminescence
Text: KIF18A Enzyme Assay: Microtubule-stimulated ATPase activity assay is used to measure KIF18A enzyme activity after treatment with compound. Compounds were 2-fold serially diluted in DMSO (Sigma Inc) over 22-point concentration range. […] The assay measures ADP formed from the ATPase reaction.

Recombinant human KIF18A (1-467 His-tagged) protein, sequence (Q8NI77 1-467): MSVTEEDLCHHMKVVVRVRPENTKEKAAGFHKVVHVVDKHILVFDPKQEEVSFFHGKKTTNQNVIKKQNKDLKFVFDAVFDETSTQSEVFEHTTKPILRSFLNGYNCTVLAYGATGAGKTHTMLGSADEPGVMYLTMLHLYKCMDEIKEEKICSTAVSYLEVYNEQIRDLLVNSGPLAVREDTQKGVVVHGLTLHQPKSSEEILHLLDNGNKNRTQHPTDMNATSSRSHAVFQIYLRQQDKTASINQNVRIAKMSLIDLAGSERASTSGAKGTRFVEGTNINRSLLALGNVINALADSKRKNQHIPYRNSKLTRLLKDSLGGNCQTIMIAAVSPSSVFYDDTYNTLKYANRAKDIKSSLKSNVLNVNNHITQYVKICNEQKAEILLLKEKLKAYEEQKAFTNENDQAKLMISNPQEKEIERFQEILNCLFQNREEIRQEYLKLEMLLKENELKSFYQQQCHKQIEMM
Recombinant human KIF18A (1-467 His-tagged) protein, sequence (P02550 whole entry partner): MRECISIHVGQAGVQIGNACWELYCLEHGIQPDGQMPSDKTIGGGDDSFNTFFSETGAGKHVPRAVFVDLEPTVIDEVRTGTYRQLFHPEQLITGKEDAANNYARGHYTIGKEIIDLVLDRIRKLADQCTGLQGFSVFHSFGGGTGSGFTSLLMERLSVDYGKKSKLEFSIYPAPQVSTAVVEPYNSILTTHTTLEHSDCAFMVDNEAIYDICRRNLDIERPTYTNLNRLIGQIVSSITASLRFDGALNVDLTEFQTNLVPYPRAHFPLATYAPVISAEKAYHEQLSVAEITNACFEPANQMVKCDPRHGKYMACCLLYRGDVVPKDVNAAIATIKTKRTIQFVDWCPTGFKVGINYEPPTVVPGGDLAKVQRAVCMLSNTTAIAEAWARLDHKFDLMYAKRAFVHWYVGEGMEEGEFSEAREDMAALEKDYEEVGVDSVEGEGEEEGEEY
Recombinant human KIF18A (1-467 His-tagged) protein, sequence (P02554 whole entry partner): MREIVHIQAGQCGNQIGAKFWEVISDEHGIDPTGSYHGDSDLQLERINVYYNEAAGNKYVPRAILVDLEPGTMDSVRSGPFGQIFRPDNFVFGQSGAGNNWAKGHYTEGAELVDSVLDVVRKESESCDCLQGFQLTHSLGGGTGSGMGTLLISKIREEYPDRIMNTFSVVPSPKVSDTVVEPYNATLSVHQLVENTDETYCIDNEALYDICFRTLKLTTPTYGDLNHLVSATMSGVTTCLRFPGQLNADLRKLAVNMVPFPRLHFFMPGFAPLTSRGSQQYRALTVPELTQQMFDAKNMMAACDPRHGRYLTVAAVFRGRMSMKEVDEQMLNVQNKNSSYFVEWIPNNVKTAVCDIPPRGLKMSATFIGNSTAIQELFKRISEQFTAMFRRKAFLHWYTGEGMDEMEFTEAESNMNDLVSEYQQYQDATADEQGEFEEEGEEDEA

| IC50 [nM] | Compound |
| --- | --- |
| 95 | Cc1cc(NC(=O)c2ccc(NS(=O)(=O)CCO)cc2N2CCC3(CC2)CC3)nc(N2CCOC3(CC3)C2)n1 [Example 11-47, 4-((2-Hydroxyethyl)sulfonamido)-N-(6-methyl-2-(4-oxa-7-azaspiro[2.5]octan-7-yl)pyrimidin-4-yl)-2-(6-azaspiro[2.5]octan-6-yl)benzamide] |
| 33 | Cc1cc(NC(=O)c2ccc(NS(=O)(=O)CCO)cc2N2CCC3(CC2)CC3)nc(N2CCC[C@@H]3C[C@@H]32)n1 [Example 11-44, N-(2-((1S,6R)-2-Azabicyclo[4.1.0]heptan-2-yl)-6-methylpyrimidin-4-yl)-4-((2-hydroxyethyl)sulfonamido)-2-(6-azaspiro[2.5]octan-6-yl)benzamide] |
| 103 | Cc1cc(NC(=O)c2ccc(S(=O)(=O)NC3(C)COC3)cc2N2CCC3(CC2)CC3)nc(N2CCC(F)(F)CC2)n1 [Example 2-5, N-(2-(4,4-Difluoropiperidin-1-yl)-6-methylpyrimidin-4-yl)-4-(N-(3-methyloxetan-3-yl)sulfamoyl)-2-(6-azaspiro[2.5]octan-6-yl)benzamide] |
| 48.3 | Cc1cc(NC(=O)c2ccc(NS(=O)(=O)CCO)cc2N2CCC3(CC2)CC3)nc(N2CC(O)C2)n1 [Example 11-20, N-(2-(3-Hydroxyazetidin-1-yl)-6-methylpyrimidin-4-yl)-4-((2-hydroxyethyl)sulfonamido)-2-(6-azaspiro[2.5]octan-6-yl)benzamide] |
| 60 | CCc1cc(NC(=O)c2ccc(NS(=O)(=O)CCO)cc2N2CCC3(CC2)CC3)nc(N2CCC(F)(F)CC2)n1 [Example 6-38, N-(2-(4,4-Difluoropiperidin-1-yl)-6-ethylpyrimidin-4-yl)-4-((2-hydroxyethyl)sulfonamido)-2-(6-azaspiro[2.5]octan-6-yl)benzamide] |
| 68 | C[C@@H]1CN(c2nccc(NC(=O)c3ccc(S(=O)(=O)NC4(C)COC4)cc3N3CCC4(CC3)CC4)n2)CCO1 [Example 2-2, (R)-N-(2-(2-Methylmorpholino)pyrimidin-4-yl)-4-(N-(3-methyloxetan-3-yl)sulfamoyl)-2-(6-azaspiro[2.5]octan-6-yl)benzamide] |
| 84 | Cc1cc(NC(=O)c2ccc(NS(=O)(=O)CCO)cc2N2CCC3(CC2)CC3)cc(OCCC(F)(F)F)n1 [Example 11-60, 4-((2-Hydroxyethyl)sulfonamido)-N-(2-methyl-6-(3,3,3-trifluoropropoxy)pyridin-4-yl)-2(6-azaspiro[2.5]octan-6-yl)benzamide] |
| 143 | CC1(NS(=O)(=O)c2ccc(C(=O)Nc3ccnc(C(C)(C)O)n3)c(N3CCC4(CC3)CC4)c2)COC1 [Example 2, N-(2-(2-Hydroxypropan-2-yl)pyrimidin-4-yl)-4-(N-(3-methyloxetan-3-yl)sulfamoyl)-2-(6-azaspiro[2.5]octan-6-yl)benzamide] |
| 35 | CC[S@](=N)(=O)c1ccc(C(=O)Nc2cc(C)nc(N3CCC(F)(F)CC3)n2)c(N2CCC3(CC2)CC3)c1 (single isomer, unassigned) [Example 19-4, 2-(6-Azaspiro[2.5]octan-6-yl)-N-(2-(4,4-difluoro-1-pieridinyl)-6-methyl-4-pyrimidinyl)-4-(R-ethylsulfonimidoyl)benzamide] |
| 32 | C[C@@H]1CN(c2nccc(NC(=O)c3ccc(NS(=O)(=O)CCO)cc3N3CCC4(CC3)CC4)n2)CCO1 [Example 6-4, (R)-4-((2-Hydroxyethyl)sulfonamido)-N-(2-(2-methylmorpholino)pyrimidin-4-yl)-2-(6-azaspiro[2.5]octan-6-yl)benzamide] |
| 99 | Cc1cc(NC(=O)c2ccc(NS(=O)(=O)C3(CO)CC3)cc2N2CCC3(CC2)CC3)nc(N2CCC(F)(F)CC2)n1 [Example 11-69] |
| 438 | Cc1cc(NC(=O)c2ccc(S(C)(=N)=O)cc2N2CCC3(CC2)CC3)nc(N2CCC(F)(F)CC2)n1 (stereo not drawn) [Example 19-2, N-(2-(4,4-Difluoropiperidin-1-yl)-6-methylpyrimidin-4-yl)-4-(methylsulfonimidoyl)-2-(6-azaspiro[2.5]octan-6-yl)benzamide] |
| 42 | N=S(=O)(c1ccc(C(=O)Nc2ccnc(N3CCC(F)(F)CC3)c2)c(N2CCC3(CC2)CC3)c1)C1CC1 (stereo not drawn) [Example 19-6, 4-(Cyclopropanesulfonimidoyl)-N-(2-(4,4-difluoropiperidin-1-yl)pyridin-4-yl)-2-(6-azaspiro[2.5]octan-6-yl)benzamide] |
| 63 | Cc1cc(NC(=O)c2ccc(NS(=O)(=O)CCO)cc2N2CCC3(CC2)CC3)nc(N2CCC(C)(F)CC2)n1 [Example 11-52, N-(2-(4-Fluoro-4-methylpiperidin-1-yl)-6-methylpyrimidin-4-yl)-4-((2-hydroxyethyl)sulfonamido)-2-(6-azaspiro[2.5]octan-6-yl)benzamide] |
| 182 | Cc1cc(NC(=O)c2ccc(S(=O)(=O)C3COC3)cc2N2CCC3(CC2)CC3)nc(N2CCC(F)(F)CC2)n1 [Example 14-1, N-(2-(4,4-Difluoropiperidin-1-yl)-6-methylpyrimidin-4-yl)-4-(oxetan-3-ylsulfonyl)-2-(6-azaspiro[2.5]octan-6-yl)benzamide] |
| 135 | Cc1cc(NC(=O)c2ccc(NS(=O)(=O)[C@H]3CCOC3)cc2N2CCC3(CC2)CC3)nc(N2CCC(F)(F)CC2)n1 [Example 11-72, (S)-N-(2-(4,4-Difluoropiperidin-1-yl)-6-methylpyrimidin-4-yl)-2-(6-azaspiro[2.5]octan-6-yl)-4-((tetrahydrofuran)-3-sulfonamido)benzamide] |
| 245 | Cc1cc(NC(=O)c2ccc(NS(=O)(=O)CCO)cc2N2CCC3(CC2)CC3)nc(N2[C@@H](C)COC[C@@H]2C)n1 [Example 11-49, N-(2-((3S,5S)-3,5-Dimethylmorpholino)-6-methylpyrimidin-4-yl)-4-((2-hydroxyethyl)sulfonamido)-2-(6-azaspiro[2.5]octan-6-yl)benzamide] |
| 17.4 | C[C@@H]1CN(c2nccc(NC(=O)c3ccc(NS(=O)(=O)[C@@H](C)CO)cc3N3CCC4(CC3)CC4)n2)CCO1 [Example 6-24-1, 4-(((S)-2-Hydroxy-1-methylethyl)sulfonamido)-N-(2-((R)-2-methylmorpholino)pyrimidin-4-yl)-2-(6-azaspiro[2.5]octan-6-yl)benzamide] |
| 78 | CC[S@@](=N)(=O)c1ccc(C(=O)Nc2cc(C)nc(N3CCC(F)(F)CC3)n2)c(N2CCC3(CC2)CC3)c1 [Example 19-3, 2-(6-Azaspiro[2.5]octan-6-yl)-N-(2-(4,4-difluoro-1-pieridinyl)-6-methyl-4-pyrimidinyl)-4-(S-ethylsulfonimidoyl)benzamide] |
| 41 | Cc1cc(NC(=O)c2ccc(NS(=O)(=O)CCO)cc2N2CCC3(CC2)CC3)nc(N2CCC[C@@](C)(F)C2)n1 [Example 11-55, (R)-N-(2-(3-Fluoro-3-methylpiperidin-1-yl)-6-methylpyrimidin-4-yl)-4-((2-hydroxyethyl)sulfonamido)-2-(6-azaspiro[2.5]octan-6-yl)benzamide] |
| 86 | C[C@@H]1CN(c2nccc(NC(=O)c3ccc(NS(=O)(=O)C[C@@H](C)O)cc3N3CCC4(CC3)CC4)n2)CCO1 [Example 6-33-2, 4-(((R)-2-hydroxypropyl)sulfonamido)-N-(2-((R)-2-methylmorpholino)pyrimidin-4-yl)-2-(6-azaspiro[2.5]octan-6-yl)benzamide] |
